Measurements: US20050089558A1 (Alamo Pharmaceuticals, LLC, priority 2003, published 2005)
Where two headings read alike, the source gives them in different places.

Assays:
mu receptors of the CNS = mu receptors of the CNS (Homo sapiens, UniProt P35372); settings: relative to morphine; cited from earlier work
[1] = tested on: abdominal muscle contractions (writhing) induced by 0.6% acetic acid; experiment: acetic acid writhing test of analgesia in mice; assay type: in vivo, Crl:CFW (SW) BR mice; settings: 0.6% acetic acid i.p. 30 min later, male mice; for Ave. # of writhes: 15-minute count
Experimental: In the animal studies presented in Examples 5-7, tramadol and dextro-propoxyphene were administered neat (undiluted), or were diluted with diluted with saline (i.e. 0.9% Sodium Chloride for injection) in order to achieve the desired dose volumes. Fresh solutions were prepared for each concentration (of each compound) prior to administration.
Acetic acid was used to assess experimental pain or “writhing.” Specifically, thirty minutes after dosing, the writhing-induction agent (0.6% Acetic Acid) was administered to all experimental groups by intraperitoneal injection at a dose volume of 10 mL/kg.
Crl:CFW® (SW) BR mice, from Charles River Laboratories were used as the animal model to test the analgesia of the tramadol/propoxyphene co-formulations. The test animals were approximately 4 weeks of age on arrival and each animals weighed approximately 22 to 28 g within 3 days of arrival. […] Animals considered suitable for study were weighed prior to treatment and randomized, by sex, into treatment groups using a standard, by weight, block randomization procedure.
The protocols employed assessed the qualitative and quantitative changes in abdominal muscle contractions (writhing) induced after the […] administration of a noxious chemical stimulus, 0.6% acetic acid, in mice. The degree and amount of contractile abdominal activity is a measure of “experimentally-induced pain”. A decrease in the amount of writhing with prior administration of a test article is an experimental measure of “analgesia.”
Dose-response functions were generated for each of the two (2) test articles (tramadol, dextro-propoxyphene,). ED50 values for analgesic activity were estimated using a least squares linear regression analysis procedure using PHARM/PCS or SAS.
The test article, positive control, and vehicle were administered to all groups as a single subcutaneous injection in the scapular region on the back at a dose volume of 10 mL/kg and at the dose levels as presented in Table 1 below.
Thirty minutes after dosing, the writhing-induction article, 0.6% acetic acid, was administered to all groups by intraperitoneal injection at a dose volume of 10 mL/kg.
Immediately after administration of the writhing-induction article, animals were placed into a poly-observation chamber and a 15-minute evaluation period was initiated. During the 15-minute evaluation period, the number of “writhes” that occurred were recorded. For scoring purposes, a “writhe” was indicated by whole body stretching or contraction of the abdomen, further described as waves of contraction of the abdominal musculature, twisting and turning of the trunk, and hind-limb extension.

[2] = cited from earlier work; for half-life: after a single oral dose of 100 mg tramadol, 2-compartmental elimination; for accumulation: during multiple dose treatment with tramadol
opioid receptors = settings: in words; cited from earlier work
NMDA receptor = settings: in words, a recent study; cited from earlier work
[3] = in vivo; cited from earlier work
[4] = in words; cited from earlier work

Chain of mu receptors of the CNS (P35372 whole entry): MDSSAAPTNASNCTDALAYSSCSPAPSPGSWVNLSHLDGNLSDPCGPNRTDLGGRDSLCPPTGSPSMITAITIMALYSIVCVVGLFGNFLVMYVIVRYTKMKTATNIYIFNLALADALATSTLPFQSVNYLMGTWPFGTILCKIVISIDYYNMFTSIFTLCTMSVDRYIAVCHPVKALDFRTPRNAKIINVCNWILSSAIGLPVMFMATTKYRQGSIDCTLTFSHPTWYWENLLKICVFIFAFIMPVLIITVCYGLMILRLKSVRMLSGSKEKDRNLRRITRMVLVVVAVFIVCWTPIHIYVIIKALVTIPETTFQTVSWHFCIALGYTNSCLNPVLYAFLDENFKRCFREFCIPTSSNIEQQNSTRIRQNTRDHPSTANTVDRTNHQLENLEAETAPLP

| SMILES | Ave. # of writhes ([1]; 1.0 mg/kg single s.c. dose) | % Analgesia ([1]; 1.0 mg/kg single s.c. dose) [%] | Ave. # of writhes ([1]; 3.2 mg/kg single s.c. dose) | % Analgesia ([1]; 3.2 mg/kg single s.c. dose) [%] | half-life [2] [h] | accumulation [2] | affinity for opioid receptors (opioid receptors) | also measured |
| --- | --- | --- | --- | --- | --- | --- | --- | --- |
| COc1cccc([C@]2(O)CCCC[C@H]2CN(C)C)c1 (racemic) [Tramadol, cyclohexanol, 2-((dimethylamino)methyl)-1-(3-methoxyphenyl)-, cis-(+−)-] | 55.1 | −4.16 | 31.7 | 40.08 | 5.1 | approximately 2 fold | low affinity | affinity for mu receptors of the CNS, times lower than that of morphine (mu receptors of the CNS): 6000 times; Ave. # of writhes ([1]; 0.32 mg/kg single s.c. dose): 54.6; % Analgesia ([1]; 0.32 mg/kg single s.c. dose): −3.21%; duration of the analgesic effect ([2]; after a single oral dose of tramadol 100 mg): about 6 hours; bioavailability ([2]; after oral administration): 68%; time to peak serum concentrations ([2]; after oral administration): ≤ 2 h; time to peak plasma levels ([2]; following oral administration): ≤ 2 h |
| CN(C)CC1CCCCC1(O)c1cccc(O)c1 (centres unmarked) [M1 derivative, O-demethyl tramadol] | – | – | – | – | 9 | approximately 2 fold | higher affinity for opioid receptors than the parent drug | – |
| CCC(=O)OC(Cc1ccccc1)(c1ccccc1)C(C)CN(C)C (stereo not drawn) [Propoxyphene, 2-Butanol, 4-(dimethylamino)-3-methyl-1,2-diphenyl-, propionate, (+)-] | 59.4 | −12.29 | 45.4 | 14.18 | – | – | – | activity at the NMDA receptor (NMDA receptor): antagonist activity; Ave. # of writhes ([1]; 10.0 mg/kg single s.c. dose): 26.7; % Analgesia ([1]; 10.0 mg/kg single s.c. dose): 49.53%; half-life [3]: 6 to 12 h |
| CCC(=O)O[C@](Cc1ccccc1)(c1ccccc1)[C@H](C)CNC [norpropoxyphene] | – | – | – | – | – | – | – | analgesic properties [4]: very weak analgesic properties |
